Like-named read-outs stand apart in the source and are kept apart here.
Experiments:
[1] = Zeta-potential measurement; format: physicochemical; details: for Zeta pot. / mV: 1 mg/mL in PBS pH 7.4 from 10 mg/mL DMSO stock, 1 d RT, 60 µL diluted in 600 µL 1 mM KCl, Zetasizer Nano ZS, Smoluchowski, mean of triplicate; for Zeta-Potential / mV: Figure 6C; for Zeta-pot. / mV: zeta potential of peptide, Fig S15 source data
In short: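 Aggregates: 1 mg/mL peptide, PBS pH 7.4, 1 d RT; dilute in KCl (1 mM, aq); measure mobility → zeta via Smoluchowski.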

[2] = Turbidity, derived count rate of scattered light; format: physicochemical; details: for Count Rate / kcps: derived count rate of scattered light at 633 nm, 173°, from zeta-potential measurement, 0.1 mg/mL in 1 mM KCl after 1 d at 1 mg/mL in PBS, turbidity / microscopic aggregation, mean of triplicate; for Log Count Rate: log of derived count rate
In short: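 Samples: 1 mg/mL in PBS pH 7.4 (from DMSO), 1 d at RT, then diluted in 1 mM KCl immediately before measurement. Triplicates, two independent runs averaged.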

[3] = system: HIV-1 infection of TZM-bl cells; experiment: HIV-1 infectivity enhancement assay, β-galactosidase luminescence; format: cell-based
[4] = log10 of derived count rate of scattered light, Figure 6C
[5] = logarithm of count rate in kcps
[6] = HIV-1 infection relative to EF-C; Fig 23 plot, panels A and B; mean of 3 values
[7] = HIV-1 infection relative to EF-C; Fig 23 plot, single data point, replicate 1
[8] = HIV-1 infection relative to EF-C; Fig 23 plot, single data point, replicate 2
[9] = HIV-1 infection relative to EF-C; Fig 23 plot, single data point, replicate 3
[10] = log10 of infection relative to EF-C, Figure 6C
[11] = n-fold infection vs virus only, relative to that of EF-C, 1.3 µM peptide
[12] = derived count rate from zeta measurement, mean
[13] = infectivity class (low / medium / high) of each library peptide; main list in c1-c6, same classes repeated in sub-lists of sequences containing the hydrophobicity/charge patterns P+,H0,P+,H0,P0,H0,P0; P+,H0,P0,H0,P0,H0,P0; P+,H0,P0,H0
[14] = infectivity enhancement relative to EF-C (=1); Feb2021 run
[15] = infectivity n-fold relative to virus only; Feb2021 run
[16] = log10 of HIV-1 infection of TZM-bl cells relative to EF-C; Fig S15 source data; asymmetric std dev errors
[17] = log10 of infectivity relative to EF-C; Feb2021 run
[18] = derived count rate of scattered light, mean, std deviation in separate column
[19] = Feb2021 run; infectivity n-fold relative to virus alone
[20] = Feb2021 run; log10 of infectivity relative to EF-C
[21] = Feb2021 run; n-fold infectivity relative to EF-C
[22] = infectivity class (low / medium / high) of the peptide in the sequence-pattern analysis, Fig. S22-A4; class limits not given
[23] = derived count rate of scattered light
[24] = Feb2021; figures match the 1.3 µM column
[25] = Feb2021; infectivity relative to virus only
[26] = Feb2021; log10 of infectivity relative to EF-C
[27] = Feb2021; n-fold infectivity relative to EF-C

| Substance | Zeta-Potential / mV ([1]; mean) | Count Rate / kcps [2] | Log10 Count Rate [2, 4] | Log10 Count Rate [2, 5] | Log10 Infection Rel EF-C [3, 10] | Inf. rel. EF-C [3, 11] | Zeta category ( +1 = if > 4 mV;-1 = if < -4 mV; 0 = -4mV to 4 mV) [1] | Zeta Pot. / mV ([1]; mean, Std in separate column) | Zeta-pot. / mV [1] | infectivity [3, 13] | Log10 Inf. rel. to EF-C [3, 16] | infectivity [3, 22] | also measured |
| --- | --- | --- | --- | --- | --- | --- | --- | --- | --- | --- | --- | --- | --- |
| CKFKFPF | -1.053 mV | 143.4 kcps | 2.156 | 2.156 | -1.6054 | 0.02 | – | – | – | – | – | – | Zeta pot. / mV [1]: -1.053 mV; Inf. rel. EF-C [3, 6]: 0.02481; Inf. rel. EF-C [3, 7]: 0.05139; Inf. rel. EF-C [3, 8]: 0.01572; Inf. rel. EF-C [3, 9]: 0.007313 |
| KIKQIIN [JGA3] | – | – | – | – | – | – | -1 (-1 = if < -4 mV) | -11.7 mV | -11.7 mV | low | -1.4 | – | Log Count Rate ([2]; Fig S8 panels A, C, asymmetric log errors): 1.806; Log Count Rate ([2]; Fig S8 panels B, D): 1.806; Count Rate ([2]; Fig S8 panels B, D, turbidity, derived count rate of scattered light): 64.03; Zeta Count Rate / kcps [2, 12]: 64.03 kcps; Zeta Count Rate Category ([2]; key not given): 0; Rel-to EFC ([3]; Fig S8 panels B, D; infectivity enhancement relative to EF-C): 0.0398; n-fold to virus ([3]; Fig S8 panels B, D; infectivity n-fold relative to virus alone): 1.672; Rel-to EFC (Feb-2021) [3, 14]: 0.0398; n-fold to virus (Feb2021) [3, 15]: 1.672; Log10 of Rel to EFC (Feb2021) [3, 17]: -1.4 |
| KIKIQINMWQRGD [VH17-II] | – | – | – | – | – | – | 0 (0 = -4mV to 4 mV) | 1.69 mV | 1.69 mV | low | -1.917 | low | Zeta Count Rate / kcps [2, 18]: 2783 kcps; n-fold to virus (Feb2021) [3, 19]: 0.5086; Log10 of Rel to EFC (Feb2021) [3, 20]: -1.917; Rel-to EFC (Feb-2021) [3, 21]: 0.0121 |
| KVKVKVQV [JG14 / TG14] | – | – | – | – | – | – | 0 (0 = -4mV to 4 mV) | – | -3.41 mV | low | -1.763 | – | Zeta Pot. / mV [1]: -3.41 mV; Zeta Count Rate Category ([2]; category 1 / 0, no key given): 0; Zeta Count Rate / kcps [2, 23]: 94.37 kcps; Absolute Infectivity / RLU /s (Feb2021) [3, 24]: 466.7 RLU /s; n-fold to virus (Feb2021) [3, 25]: 0.7254; Log10 of Rel to EFC (Feb2021) [3, 26]: -1.763; Rel-to EFC (Feb-2021) [3, 27]: 0.01726 |
| KAKLTCT | -2.2992 mV | 16.8 kcps | 1.225 | 1.225 | -1.177 | 0.07 | – | – | – | – | – | – | Zeta pot. / mV [1]: -2.2992 mV; Inf. rel. EF-C [3, 6]: 0.0665; Inf. rel. EF-C [3, 7]: 0.09602; Inf. rel. EF-C [3, 8]: 0.05821; Inf. rel. EF-C [3, 9]: 0.04527 |
| KIKIQINMWWWQ [VH12] | – | – | – | – | – | – | 1 (+1 = if > 4 mV) | 9.45 mV | 9.45 mV | high | 0.4391 | high | Zeta Count Rate / kcps [2, 18]: 7596.3 kcps; n-fold to virus (Feb2021) [3, 19]: 115.5; Log10 of Rel to EFC (Feb2021) [3, 20]: 0.4391; Rel-to EFC (Feb-2021) [3, 21]: 2.749 |
| RFWFWFW | 13.63 mV | 30037.33333 kcps | 4.478 | 4.478 | -0.495 | 0.32 | – | – | – | – | – | – | – |
| KIKIWIW | 17.23 mV | 607.7 kcps | 2.784 | 2.784 | -0.4875 | 0.33 | – | – | – | – | – | – | – |
| KVKVQVVV [TG8] | – | – | – | – | – | – | 0 (0 = -4mV to 4 mV) | 0.147 mV | 0.147 mV | low | -1.455 | low | Zeta Pot. / mV [1]: 0.147 mV; Zeta Count Rate Category ([2]; category 1 / 0, no key given): 1; Zeta Count Rate / kcps [2, 12]: 163.1 kcps; Zeta Count Rate / kcps [2, 23]: 163.1 kcps; Zeta Count Rate Category ([2]; key not given): 1; Absolute Infectivity / RLU /s (Feb2021) [3, 24]: 820 RLU /s; n-fold to virus (Feb2021) [3, 25]: 1.473; Log10 of Rel to EFC (Feb2021) [3, 26]: -1.455; Rel-to EFC (Feb-2021) [3, 27]: 0.03506; Rel-to EFC (Feb-2021) [3, 14]: 0.03506; n-fold to virus (Feb2021) [3, 15]: 1.473; Log10 of Rel to EFC (Feb2021) [3, 17]: -1.455 |

— paper PMC10447463, “Data-mining unveils structure–property–activity correlation of viral infectivity enhancing self-assembling peptides” (Nature Communications, 2023)
